The results in this text go back to ChEMBL document CHEMBL1155495, “Structural study of phenyl boronic acid derivatives as AmpC beta-lactamase inhibitors” (Bioorg Med Chem Lett, 2010).

In general, Ki refers to the equilibrium dissociation constant of an inhibitor or competing ligand from its target. The low end stands for a stronger hold on the target, the high end for a looser hold on the target. By logD is commonly meant lipophilicity at a set pH, counting ionised and neutral species. Higher therefore signals higher lipophilicity.

Molecules are shown by their SMILES.

One data set in a line: Inhibition of AmpC beta lactamase by spectrophotometry.
Conditions: not given
Regarding `Nc1cc(B(O)O)ccc1C(=O)O`, the Ki is 1800 nM. With `O=C(O)c1ccc(C(=O)Nc2cccc(S(=O)(=O)Nc3cc(B(O)O)ccc3C(=O)O)c2)cc1`, the inhibition constant (Ki) was 100 nM. Still for that read-out and setting: next, `O=C(O)c1ccc(B(O)O)cc1NS(=O)(=O)c1cccc(S(=O)(=O)Nc2cc(B(O)O)ccc2C(=O)O)c1`: 23 nM. Still for that read-out and setting: next, `Cc1noc(C)c1S(=O)(=O)Nc1cc(B(O)O)ccc1C(=O)O`: 350 nM; `O=C(O)c1ccc(C(=O)Nc2ccc(S(=O)(=O)Nc3cccc(B(O)O)c3)cc2)cc1`: 450 nM. The molecule `O=S(=O)(Nc1cccc(B(O)O)c1)c1cccc(S(=O)(=O)Nc2cccc(B(O)O)c2)c1` yielded a Ki of 60 nM.

Another data set is described as follows: Lipophilicity, log D of the compound. It is filed as physicochemical. As to conditions: octanol/water.
`O=C(O)c1ccc(B(O)O)cc1NS(=O)(=O)c1cc(S(=O)(=O)c2ccccc2)cs1` displayed a logD of 0.026.
